The assay relates to SU-DHL-4 cell line. Put plainly: SU-DHL-4 cell proliferation assay (Cell Titer-Glo viability). Format: cell-based. The conditions noted are these: Homo sapiens; cell viability IC50 activity level, DLBCL cell line SU-DHL-4, 120 hours post-treatment; read-out: SU-DHL-4 Act. Put shortly:
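Viability read by ATP luminescence (Cell Titer-Glo) at the start and after 120 h of growth at 37°C in 5% CO2. DLBCL cells were seeded at 500 per well with compound across 0.5 nM–10 μM in 20 points, 0.1% DMSO. A four-parameter sigmoidal fit gave IC50 as 50% of DMSO control.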
For orientation: In ATP-based viability assays light output follows the ATP content of the culture.
Consider `N#Cc1ccc(C2CN(Cc3ccc(CNc4cccc5c4C(=O)N(C4CCC(=O)NC4=O)C5=O)cc3F)C2)cc1` (stereo not shown) [Cpd 102, 4-(1-(4-((2-(2,6-dioxopiperidin-3-yl)-1,3-dioxoisoindolin-4-ylamino)methyl)-2-fluorobenzyl)azetidin-3-yl)benzonitrile], for which the IC50 was below 200 nM.

As to `O=C1CCC(N2C(=O)c3cccc(NCc4ccc(CN5CC(c6ccccc6)C5)cc4)c3C2=O)C(=O)N1` (stereo not shown) [Cpd 6, 2-(2,6-dioxopiperidin-3-yl)-4-(4-((3-phenylazetidin-1-yl)methyl)benzylamino)isoindoline-1,3-dione], the IC50 was 501 to 750 nM. For `CC1(C)CCC2(CCN(Cc3ccc(CNc4cccc5c4C(=O)N(C4CCC(=O)NC4=O)C5=O)cc3F)CC2)O1` (stereo not shown) [Cpd 148, 4-(4-((2,2-dimethyl-1-oxa-8-azaspiro[4.5]decan-8-yl)methyl)-3-fluorobenzylamino)-2-(2,6-dioxopiperidin-3-yl)isoindoline-1,3-dione], the IC50 was below 200 nM.

As for `O=C1CCC(N2C(=O)c3cccc(NCc4ccc(CN5CCC(OC(F)(F)F)CC5)cc4)c3C2=O)C(=O)N1` (stereo not shown) [Cpd 123, 2-(2,6-dioxopiperidin-3-yl)-4-(4-((4-(trifluoromethoxy)piperidin-1-yl)methyl)benzylamino)isoindoline-1,3-dione], the IC50 was 200 to 500 nM.

For `O=C1CCC(N2C(=O)c3cccc(NCc4ccc(CN5CC(N6C7CCC6COC7)C5)cc4)c3C2=O)C(=O)N1` (stereo not shown) [Cpd 248, 4-(4-((3-(3-oxa-8-azabicyclo[3.2.1]octan-8-yl)azetidin-1-yl)methyl)benzylamino)-2-(2,6-dioxopiperidin-3-yl)isoindoline-1,3-dione], the IC50 was below 200 nM. As to `O=C1CCC(N2C(=O)c3cccc(NCc4ccc(CN5CCN(c6ccc(C(F)(F)F)cn6)CC5)cc4)c3C2=O)C(=O)N1` (stereo not shown) [Cpd 119, 2-(2,6-dioxopiperidin-3-yl)-4-(4-((4-(5-(trifluoromethyl)pyridin-2-yl)piperazin-1-yl)methyl)benzylamino)isoindoline-1,3-dione], the IC50 was 200 to 500 nM. With `O=C1CCC(N2C(=O)c3cccc(NCc4ccc(CN5CC6(CCOC6)C5)cc4F)c3C2=O)C(=O)N1` (stereo not shown) [Cpd 241, 4-(4-(6-oxa-2-azaspiro[3.4]octan-2-ylmethyl)-2-fluorobenzylamino)-2-(2,6-dioxopiperidin-3-yl)isoindoline-1,3-dione], the IC50 was below 200 nM. As for `Cc1cc(CNc2cccc3c2C(=O)N(C2CCC(=O)NC2=O)C3=O)ccc1CN1CC2(CCOCC2)C1` (stereo not shown) [Cpd 220, 4-(4-(7-oxa-2-azaspiro[3.5]nonan-2-ylmethyl)-3-methylbenzylamino)-2-(2,6-dioxopiperidin-3-yl)isoindoline-1,3-dione], the IC50 is below 200 nM. Take `O=C1CCC(N2C(=O)c3cccc(NCc4ccc(CN5CC(C(F)(F)F)C5)cc4)c3C2=O)C(=O)N1` (stereo not shown) [Cpd 117, 2-(2,6-dioxopiperidin-3-yl)-4-(4-((3-(trifluoromethyl)azetidin-1-yl)methyl)benzylamino)isoindoline-1,3-dione]: the IC50 lay within 200 to 500 nM.

For `NC(=O)c1ccc(N2CCN(Cc3ccc(CNc4cccc5c4C(=O)N([C@@H]4CCC(=O)NC4=O)C5=O)c(F)c3)CC2)nc1` [Cpd 206, (R)-6-(4-(4-((2-(2,6-dioxopiperidin-3-yl)-1,3-dioxoisoindolin-4-ylamino)methyl)-3-fluorobenzyl)piperazin-1-yl)nicotinamide], the IC50 was below 200 nM. `Cc1cc(CNc2cccc3c2C(=O)N(C2CCC(=O)NC2=O)C3=O)ccc1CN1CCN(c2cccc(C(N)=O)n2)CC1` (stereo not shown) [Cpd 182, 6-(4-(4-((2-(2,6-dioxopiperidin-3-yl)-1,3-dioxoisoindolin-4-ylamino)methyl)-2-methylbenzyl)piperazin-1-yl)picolinamide]: the IC50 is below 200 nM. For `C[C@@H]1CN(c2ccc(C#N)cc2Cl)CCN1Cc1ccc(CNc2cccc3c2C(=O)N(C2CCC(=O)NC2=O)C3=O)cc1` (stereo partly drawn) [Cpd 62, 3-chloro-4-((3R)-4-(4-((2-(2,6-dioxopiperidin-3-yl)-1,3-dioxoisoindolin-4-ylamino)methyl)benzyl)-3-methylpiperazin-1-yl)benzonitrile], the IC50 is below 200 nM. The same measure for `O=C1CCC(N2C(=O)c3cccc(NCc4ccc(CN5CC6(CCOCC6)C5)cc4)c3C2=O)C(=O)N1` (stereo not shown) [Cpd 219, 4-(4-(7-oxa-2-azaspiro[3.5]nonan-2-ylmethyl)benzylamino)-2-(2,6-dioxopiperidin-3-yl)isoindoline-1,3-dione]: below 200 nM; for `CC(C)(C)C1CN(Cc2ccc(CNc3cccc4c3C(=O)N(C3CCC(=O)NC3=O)C4=O)c(F)c2)C1` (stereo not shown) [Cpd 134, 4-(4-((3-tert-butylazetidin-1-yl)methyl)-2-fluorobenzylamino)-2-(2,6-dioxopiperidin-3-yl)isoindoline-1,3-dione]: below 200 nM; for `NC(=O)c1ccc(N2CCN(Cc3ccc(CNc4cccc5c4C(=O)N([C@@H]4CCC(=O)NC4=O)C5=O)cc3)CC2)cn1` [Cpd 91, (R)-5-(4-(4-((2-(2,6-dioxopiperidin-3-yl)-1,3-dioxoisoindolin-4-ylamino)methyl)benzyl)piperazin-1-yl)picolinamide]: below 200 nM.

As for `Cc1nnc(N2CCN(Cc3ccc(CNc4cccc5c4C(=O)N(C4CCC(=O)NC4=O)C5=O)cc3)CC2)s1` (stereo not shown) [Cpd 193, 2-(2,6-dioxopiperidin-3-yl)-4-(4-((4-(5-methyl-1,3,4-thiadiazol-2-yl)piperazin-1-yl)methyl)benzylamino)isoindoline-1,3-dione], the IC50 was in the range of 200 to 500 nM. Consider `O=C1CCC(N2C(=O)c3cccc(NCc4ccc(CN5CCC6(CCOC6)CC5)cc4F)c3C2=O)C(=O)N1` (stereo not shown) [Cpd 231, 4-(4-(2-oxa-8-azaspiro[4.5]decan-8-ylmethyl)-2-fluorobenzylamino)-2-(2,6-dioxopiperidin-3-yl)isoindoline-1,3-dione], for which the IC50 was below 200 nM. In the case of `Cc1cc(CNc2cccc3c2C(=O)N(C2CCC(=O)NC2=O)C3=O)ccc1CN1CC(N2C3CCC2COC3)C1` (stereo not shown) [Cpd 247, 4-(4-((3-(3-oxa-8-azabicyclo[3.2.1]octan-8-yl)azetidin-1-yl)methyl)-3-methylbenzylamino)-2-(2,6-dioxopiperidin-3-yl)isoindoline-1,3-dione], the IC50 is below 200 nM. On to `Cc1cc(CNc2cccc3c2C(=O)N(C2CCC(=O)NC2=O)C3=O)ccc1CN1CCN(c2ccc(C(N)=O)cn2)CC1` (stereo not shown) [Cpd 205, 6-(4-(4-((2-(2,6-dioxopiperidin-3-yl)-1,3-dioxoisoindolin-4-ylamino)methyl)-2-methylbenzyl)piperazin-1-yl)nicotinamide], for which the IC50 was below 200 nM. As for `Cc1cc(CNc2cccc3c2C(=O)N(C2CCC(=O)NC2=O)C3=O)ccc1CN1CCC2(CCC2)C1` (stereo not shown) [Cpd 76, 4-(4-(6-azaspiro[3.4]octan-6-ylmethyl)-3-methylbenzylamino)-2-(2,6-dioxopiperidin-3-yl)isoindoline-1,3-dione], the IC50 fell in the range of 200 to 500 nM. With `O=C1CCC(N2C(=O)c3cccc(NCc4ccc(CN5CC6(CC6)C5)cc4F)c3C2=O)C(=O)N1` (stereo not shown) [Cpd 135, 4-(4-(5-azaspiro[2.3]hexan-5-ylmethyl)-2-fluorobenzylamino)-2-(2,6-dioxopiperidin-3-yl)isoindoline-1,3-dione], the IC50 lay in the range of 200 to 500 nM. For `NC(=O)c1ccc(N2CCN(Cc3ccc(CNc4cccc5c4C(=O)N(C4CCC(=O)NC4=O)C5=O)c(F)c3)CC2)nc1` (stereo not shown) [Cpd 149, 6-(4-(4-((2-(2,6-dioxopiperidin-3-yl)-1,3-dioxoisoindolin-4-ylamino)methyl)-3-fluorobenzyl)piperazin-1-yl)nicotinamide], the IC50 was below 200 nM.

Values taken from patent publication US11358952B2, “Substituted 4-aminoisoindoline-1,3-dione compounds, compositions thereof, and methods of treatment therewith” (Celgene Corporation, priority 2018, dated 2022).
